Source: the supplement of paper PMC10132981, “Formate overflow drives toxic folate trapping in MTHFD1 inhibited cancer cells” (Nature Metabolism, 2023)

Experiments:
Assay in all cases: EC50 for viability (resazurin, 96 h)
SW620 MTHFD2-/- = settings: RPMI+GlutaMAX (5% dFBS, 1% P/S)
SW620 WT = test system: SW620 WT
SW620 MTHFD2 -/- = test system: SW620 MTHFD2 -/-
SW620 = test system: SW620
HCT116 = settings: RPMI+GlutaMAX (10% FBS, 1% P/S)

Nc1nc(N)c(CC(=O)Nc2cnc(C(=O)N[C@@H](CCC(=O)O)C(=O)O)c(F)c2)c(=O)[nH]1 [TH9619]
EC50 for viability [nM]
Settings	metabolite supplement: Hypoxanthine	metabolite supplement: Hypoxanthine + Formate	metabolite supplement: Thymidine
HCT116	13.5	–	1190
SW620 MTHFD2-/-	4230	30.1	–

Settings	EC50 for viability [nM]
SW620 MTHFD2 -/-, RPMI+GlutaMAX (5% dFBS, 1% P/S), metabolite supplement: Hypoxanthine	25
SW620 MTHFD2 -/-, RPMI+GlutaMAX (5% dFBS, 1% P/S), metabolite supplement: Sodium Formate	6.43
SW620 MTHFD2 -/-, RPMI+GlutaMAX (5% dFBS, 1% P/S), metabolite supplement: Thymidine	0.821
SW620 MTHFD2 -/-, RPMI+GlutaMAX (5% dFBS, 1% P/S), metabolite supplement: Thymidine + Sodium Formate	> 10000
SW620 MTHFD2 -/-, RPMI+GlutaMAX (5% dFBS, 1% P/S), metabolite supplement: Vehicle	1.03
SW620 MTHFD2 -/-, RPMI+GlutaMAX (10% FBS, 1% P/S), metabolite supplement: None	2.82
SW620 MTHFD2 -/-, RPMI+GlutaMAX (10% dFBS, 1% P/S), metabolite supplement: None	993
SW620 WT, RPMI+GlutaMAX (5% dFBS, 1% P/S), metabolite supplement: Adenine	18.9
SW620 WT, RPMI+GlutaMAX (5% dFBS, 1% P/S), metabolite supplement: Adenosine	18.3
SW620 WT, RPMI+GlutaMAX (5% dFBS, 1% P/S), metabolite supplement: Guanosine	24.2
SW620 WT, RPMI+GlutaMAX (5% dFBS, 1% P/S), metabolite supplement: Hypoxanthine	19.5
SW620 WT, RPMI+GlutaMAX (5% dFBS, 1% P/S), metabolite supplement: Hypoxanthine + AICAr 10 µM	19.7
SW620 WT, RPMI+GlutaMAX (5% dFBS, 1% P/S), metabolite supplement: Hypoxanthine + AICAr 30 µM	30.3
SW620 WT, RPMI+GlutaMAX (5% dFBS, 1% P/S), metabolite supplement: Hypoxanthine + AICAr 50 µM	75.9
SW620 WT, RPMI+GlutaMAX (5% dFBS, 1% P/S), metabolite supplement: Hypoxanthine + AICAr 100 µM	1670
SW620 WT, RPMI+GlutaMAX (5% dFBS, 1% P/S), metabolite supplement: Sodium Formate	944
SW620 WT, RPMI+GlutaMAX (5% dFBS, 1% P/S), metabolite supplement: Thymidine	1900
SW620 WT, RPMI+GlutaMAX (5% dFBS, 1% P/S), metabolite supplement: Thymidine + Sodium Formate	> 10000
SW620 WT, RPMI+GlutaMAX (5% dFBS, 1% P/S), metabolite supplement: Vehicle	861
SW620 WT, RPMI+GlutaMAX (5% dFBS, 1% P/S, 10 uM Hypoxanthine), metabolite supplement: Thymidine 0.1 uM	18.9
SW620 WT, RPMI+GlutaMAX (5% dFBS, 1% P/S, 10 uM Hypoxanthine), metabolite supplement: Thymidine 0.5 uM	66.9
SW620 WT, RPMI+GlutaMAX (5% dFBS, 1% P/S, 10 uM Hypoxanthine), metabolite supplement: Thymidine 1uM	3910
SW620 WT, RPMI+GlutaMAX (5% dFBS, 1% P/S, 10 uM Hypoxanthine), metabolite supplement: Thymidine 5uM	> 10000
SW620 WT, RPMI+GlutaMAX (5% dFBS, 1% P/S, 10 uM Hypoxanthine), metabolite supplement: Thymidine 10 uM	> 10000
SW620 WT, RPMI+GlutaMAX (5% dFBS, 1% P/S, 10 uM Hypoxanthine), metabolite supplement: Thymidine 25 uM	> 10000
SW620 WT, RPMI+GlutaMAX (5% dFBS, 1% P/S, 10 uM Hypoxanthine), metabolite supplement: Thymidine 50 uM	> 10000
SW620 WT, RPMI+GlutaMAX (5% dFBS, 1% P/S, 50 uM Hypoxanthine), metabolite supplement: Thymidine 0.1 uM	17.4
SW620 WT, RPMI+GlutaMAX (5% dFBS, 1% P/S, 50 uM Hypoxanthine), metabolite supplement: Thymidine 0.5 uM	26.3
SW620 WT, RPMI+GlutaMAX (5% dFBS, 1% P/S, 50 uM Hypoxanthine), metabolite supplement: Thymidine 1uM	31.9
SW620 WT, RPMI+GlutaMAX (5% dFBS, 1% P/S, 50 uM Hypoxanthine), metabolite supplement: Thymidine 5uM	> 10000
SW620 WT, RPMI+GlutaMAX (5% dFBS, 1% P/S, 50 uM Hypoxanthine), metabolite supplement: Thymidine 10 uM	> 10000
SW620 WT, RPMI+GlutaMAX (5% dFBS, 1% P/S, 50 uM Hypoxanthine), metabolite supplement: Thymidine 25 uM	> 10000
SW620 WT, RPMI+GlutaMAX (5% dFBS, 1% P/S, 50 uM Hypoxanthine), metabolite supplement: Thymidine 50 uM	> 10000
SW620 WT, RPMI+GlutaMAX (10% FBS, 1% P/S), metabolite supplement: None	32.9
SW620 WT, RPMI+GlutaMAX (10% dFBS, 1% P/S), metabolite supplement: None	4.93
SW620, HPLM (5% dFBS, 1% P/S), metabolite supplement: Vehicle	11.3
SW620, RPMI+GlutaMAX (5% FBS, 1% P/S), metabolite supplement: Vehicle	24.9
SW620, RPMI+GlutaMAX (5% dFBS, 1% P/S), metabolite supplement: 0 nM Pyrazofurin	1030
SW620, RPMI+GlutaMAX (5% dFBS, 1% P/S), metabolite supplement: 25 nM Pyrazofurin	1160
SW620, RPMI+GlutaMAX (5% dFBS, 1% P/S), metabolite supplement: 50 nM Pyrazofurin	365
SW620, RPMI+GlutaMAX (5% dFBS, 1% P/S), metabolite supplement: 0.5 µM Hypoxanthine	287
SW620, RPMI+GlutaMAX (5% dFBS, 1% P/S), metabolite supplement: 1.0 µM Hypoxanthine	75.5
SW620, RPMI+GlutaMAX (5% dFBS, 1% P/S), metabolite supplement: 5.0 µM Hypoxanthine	14.1
SW620, RPMI+GlutaMAX (5% dFBS, 1% P/S), metabolite supplement: 10 µM Hypoxanthine	13.2
SW620, RPMI+GlutaMAX (5% dFBS, 1% P/S), metabolite supplement: 12,5 nM Pyrazofurin	1420
SW620, RPMI+GlutaMAX (5% dFBS, 1% P/S), metabolite supplement: 25 µM Hypoxanthine	14.6
SW620, RPMI+GlutaMAX (5% dFBS, 1% P/S), metabolite supplement: 50 µM Hypoxanthine	13.9
SW620, RPMI+GlutaMAX (5% dFBS, 1% P/S), metabolite supplement: Allopurinol	312
SW620, RPMI+GlutaMAX (5% dFBS, 1% P/S), metabolite supplement: Allopurinol + Hypoxanthine	15.5
SW620, RPMI+GlutaMAX (5% dFBS, 1% P/S), metabolite supplement: Deoxyuridine	267
SW620, RPMI+GlutaMAX (5% dFBS, 1% P/S), metabolite supplement: Deoxyuridine + Hypoxanthine	9.78
SW620, RPMI+GlutaMAX (5% dFBS, 1% P/S), metabolite supplement: Febuxostat	766
SW620, RPMI+GlutaMAX (5% dFBS, 1% P/S), metabolite supplement: Febuxostat + Hypoxanthine	25.2
SW620, RPMI+GlutaMAX (5% dFBS, 1% P/S), metabolite supplement: H2O2	406
SW620, RPMI+GlutaMAX (5% dFBS, 1% P/S), metabolite supplement: H2O2 + Hypoxanthine	16.3
SW620, RPMI+GlutaMAX (5% dFBS, 1% P/S), metabolite supplement: Hypoxanthine	15.4
SW620, RPMI+GlutaMAX (5% dFBS, 1% P/S), metabolite supplement: Orotic acid	309
SW620, RPMI+GlutaMAX (5% dFBS, 1% P/S), metabolite supplement: Orotic acid + Hypoxanthine	12.8
SW620, RPMI+GlutaMAX (5% dFBS, 1% P/S), metabolite supplement: Uric acid	502
SW620, RPMI+GlutaMAX (5% dFBS, 1% P/S), metabolite supplement: Vehicle	400
SW620, RPMI+GlutaMAX (5% dFBS, 1% P/S, 50 µM Hypoxanthine), metabolite supplement: 0	13.3
SW620, RPMI+GlutaMAX (10% FBS, 1% P/S), metabolite supplement: Folic acid	4000
SW620, RPMI+GlutaMAX (10% FBS, 1% P/S), metabolite supplement: Folinic acid	> 10000
SW620, RPMI+GlutaMAX (10% FBS, 1% P/S), metabolite supplement: Hypoxanthine	13.6
SW620, RPMI+GlutaMAX (10% FBS, 1% P/S), metabolite supplement: Sodium Formate	15.3
SW620, RPMI+GlutaMAX (10% FBS, 1% P/S), metabolite supplement: Thymidine	516
SW620, RPMI+GlutaMAX (10% FBS, 1% P/S), metabolite supplement: Thymidine + Folic acid	8880
SW620, RPMI+GlutaMAX (10% FBS, 1% P/S), metabolite supplement: Thymidine + Sodium Formate	538
SW620, RPMI+GlutaMAX (10% FBS, 1% P/S), metabolite supplement: Vehicle	22.6
